B1: BMP4: Bone Morphogenic Protein 4, NCBI GeneID: 652 (protein, UniProt P12644 293-408, looked up)
Bone morphogenetic protein 4: SPKHHSQRARKKNKNCRRHSLYVDFSDVGWNDWIVAPPGYQAFYCHGDCPFPLADHLNSTNHAIVQTLVNSVNSSIPKACCVPTELSAISMLYLDEYDKVVLKNYQEMVVEGCGCR
B2: Activin: dimeric polypeptide which stimulates the Activin/Nodal pathway (protein, UniProt P08476 311-426, looked up)
Inhibin beta A chain: GLECDGKVNICCKKQFFVSFKDIGWNDWIIAPSGYHANYCEGECPSHIAGTSGSSLSFHSTVINHYRMRGHSPFANLKSCCVPTKLRPMSMLYYDDGQNIIKKDIQNMIVEECGCS
modifications: Inhibin beta A chain
B3: Noggin: BMP inhibitor (BMP antagonist protein) (protein, UniProt Q13253 28-232, looked up)
Noggin: QHYLHIRPAPSDNLPLVDLIEHPDPIFDPKEKDLNETLLRSLLGGHYDPGFMATSPPEDRPGGGGGAAGGAEDLAELDQLLRQRPSGAMPSEIKGLEFSEGLAQGKKQRLSKKLRRKLQMWLWSQTFCPVLYAWNDLGSRFWPRYVKVGSCFSKRSCSVPEGMVCKPSKSVHLTVLRWRCQRRGGQRCGWIPIQYPIISECKCSC

Tests used:
[1] = tested on: DE cells generated from hESCs; assay: Pancreatic differentiation of hESC-derived definitive endoderm cells, QPCR of marker expression (FIG. 2); assay type: cell-based; conditions: for expression of pancreatic (progenitor) markers: hESC derived DE cells grown 3 days; for expression of gut (CDX2) and liver markers (AFP): hESC derived DE cells
Description: QPCR analyses showing the expression of PDX1/HLXB9/HNF6/CDX2/AFP/SOX9/PTF1A in DE cells grown for 3 days in the presence of diverse combination of Retinoic Acid (RA), SB431542 (SB) or Activin 10 ng/ml (Act), FGF10 50 ng/ml (FGF) or SU5402 10 μM (SU), and Noggin 100 ng/ml (Nog) or BMP4 10 ng/ml.
hESCs (H9 from WiCell) and hIPSCs (BBHX8, A1ATD-1, JRO1D) (Rashid S, et al. (2010) J Clin Invest 120: 3127-3136) were grown in defined culture (Brons et al (2007) Nature 448: 191-195). Cells were passaged weekly using collagenase IV and maintained in chemically defined medium (CDM) supplemented with Activin A (10 ng/ml) and FGF2 (12 ng/ml) as described previously ((Brons et al (2007)). Differentiation was carried out as described in FIG. 1. Daily media changes were made during the entire differentiation protocol. After the DE stage (stage 1), cells were cultured in Advanced DMEM (Invitrogen) supplemented with SB-431542 (10 μM; Tocris), FGF10 (50 ng/ml; AutogenBioclear), all-trans retinoic acid (RA, 2 μM; Sigma) and Noggin (50 ng/ml; R&D Systems) for 3 days. For stage 3, the cells were cultured in Advanced DMEM+human FGF10 (50 ng/ml; AutogenBioclear), all-trans retinoic acid (RA, 2 μM; Sigma), KAAD-cyclopamine (0.25 μM; Toronto Research Chemicals) and Noggin (50 ng/ml; R&D Systems) for 3 days. For Stage 4, the cells were cultured in human KGF (FGF7) or FGF10 (50 ng/ml; R&D Systems) for 3 days. For maturation of pancreatic progenitors, cells were grown in Advanced DMEM+1% vol/vol B27 and DAPT ([…]) for 3 days and for 3 additional days in Advanced DMEM+1% vol/vol B27. Alternatively, for Stage 4, the cells were cultured in human KGF (FGF7) or FGF10 (50 ng/ml; R&D Systems) and all-trans retinoic acid (RA, 2 μM; Sigma) for 3 days. Alternatively for maturation of pancreatic progenitors, cells were grown in Advanced DMEM+1% vol/vol B27, all-trans retinoic acid (RA, 2 μM; Sigma) and DAPT ([…]) for 3 days and for 3 additional days in Advanced DMEM+1% vol/vol B27 and all-trans retinoic acid (RA, 2 μM; Sigma).
(§1) Methods for RT-QPCR were described in Touboul T et al. (2010). Hepatology 51: 1754-1765. All data are presented as average of 3 independent biological triplicates and error bars indicate standard deviation.
We recently established a defined culture system to differentiate hESCs and hIPSCs into near homogenous populations of Definitive Endoderm (DE) cells (Teo A K et al. (2011) Genes Dev 25: 238-250). Importantly, this culture system relies on a chemically defined medium (CDM) devoid of animal products, including BSA, serum, complex extra cellular matrix such as Matrigel™, or feeders cells; thereby avoiding the presence of unknown factors which could interfere with experimental outcomes. To further extend this protocol, we screened a broad number of combinations of growth factors and inhibitors of signalling pathways to identify defined culture conditions driving differentiation of DE cells into pancreatic progenitors. […] We then sought to validate and optimise the role of each of these additives.

DE cells = assay: Ventral foregut / hepatic specification of DE cells, Q-PCR of hepatic markers (FIGS. 7, 8); assay type: cell-based, human
Description: as §1
During the screening of the culture conditions described above, we noted that DE cells grown in the presence of Activin acquired the appearance of foetal hepatocytes with large darkened cytoplasmic space and canaliculi-like structures. […] Alternatively, unknown signaling pathways could activate the same program of differentiation.

Row | Molecule | expression of pancreatic (progenitor) markers ([1]; QPCR, FIG. 2) | expression of ventral foregut / liver bud / hepatic markers (DE cells; FIGS. 7 and 8) | expression of gut (CDX2) and liver markers (AFP) ([1]; QPCR, FIG. 2) | other results
1 | CC1=C(/C=C/C(C)=C/C=C/C(C)=C/C(=O)O)C(C)(C)CCC1 [RA, (2E,4E,6E,8E)-3,7-dimethyl-9-(2,6,6-trimethylcyclohexen-1-yl)nona-2,4,6,8-tetraenoic acid] | necessary for the induction of pancreatic specification |  |  | 
2 | NC(=O)c1ccc(-c2nc(-c3ccc4c(c3)OCO4)c(-c3ccccn3)[nH]2)cc1 [SB431542, 4-(5-Benzol[1,3]dioxol-5-yl-4-pyridin-2-yl-1H-imidazol-2-yl)-benzamide hydrate] | had the opposite effect |  |  | expression of ventral foregut / liver bud / hepatic markers (DE cells; FIGS. 7 and 8, hydrate): decreases the expression of hepatic markers; expression of ventral foregut / liver bud / hepatic markers (DE cells; FIGS. 7 and 8, listed as SB, hydrate): decreased the expression of HNF4α, SOX17, HEX and TBX3
3 | Cc1c[nH]c(/C=C2\C(=O)Nc3ccccc32)c1CCC(=O)O [SU5402] | did not affect the expression of pancreatic progenitor markers | decreases the expression of hepatic markers | augmented | cell death ([1]; FGF inhibition during pancreatic differentiation): significant cell death; expression of PTF1A ([1]; absence of FGF signalling, QPCR, FIG. 2): strongly reduced
4 | B1 | significant decrease in the expression of pancreatic progenitor markers |  | inducing gut (CDX2) and liver markers (AFP) | 
5 | B2 | abolished the expression of pancreatic markers | expressed genes marking ventral foregut |  | 
6 | B3 |  | decreases the expression of hepatic markers |  | HNF4 expression (DE cells; FIG. 8): moderate decrease

From US9790470B2, “In vitro pancreatic differentiation of pluripotent mammalian cells” (Cambridge Enterprise Limited, priority 2012, dated 2017)
